NC(=O)N1c2ccccc2CC(=O)c2ccccc21
solubility (mole fraction)
Details	in THF	in acetone	in acetonitrile	in ethanol	in isopropanol	in methanol	in n-butanol	in n-propanol
288.15 K	0.00204	0.00105	0.000641	0.000273	0.000151	0.000534	0.000251	0.000245
293.15 K	0.00217	0.0012	0.000751	0.000322	0.000187	0.000619	0.000309	0.000301
298.15 K	0.00241	0.00134	0.000839	0.000383	0.000217	0.000759	0.000355	0.000358
303.15 K	0.00266	0.00154	0.00103	0.000488	0.000299	0.000907	0.000479	0.000475
308.15 K	0.00308	0.00182	0.00122	0.000617	0.000413	0.00111	0.000617	0.000616
